Experimental data: publication PMC7044277 (Nature Communications, 2020)
Where “and” joins values, the source holds several entries; their conditions need not be identical. Equal entries are not always repeated.

What was measured:
Format in all cases: cell-based
[1] = molecular target: 320 non-olfactory GPCRs (Homo sapiens, UniProt P21462)
[2] = molecular target: T1, 320 non-olfactory GPCRs (Homo sapiens, UniProt Q9HB89); settings: receptor NMUR1; replicate values, Fig_4g
T1 construct: expressed in transfected cells; host or cells: HTLA cells
T1 sequence (Q9HB89 whole entry): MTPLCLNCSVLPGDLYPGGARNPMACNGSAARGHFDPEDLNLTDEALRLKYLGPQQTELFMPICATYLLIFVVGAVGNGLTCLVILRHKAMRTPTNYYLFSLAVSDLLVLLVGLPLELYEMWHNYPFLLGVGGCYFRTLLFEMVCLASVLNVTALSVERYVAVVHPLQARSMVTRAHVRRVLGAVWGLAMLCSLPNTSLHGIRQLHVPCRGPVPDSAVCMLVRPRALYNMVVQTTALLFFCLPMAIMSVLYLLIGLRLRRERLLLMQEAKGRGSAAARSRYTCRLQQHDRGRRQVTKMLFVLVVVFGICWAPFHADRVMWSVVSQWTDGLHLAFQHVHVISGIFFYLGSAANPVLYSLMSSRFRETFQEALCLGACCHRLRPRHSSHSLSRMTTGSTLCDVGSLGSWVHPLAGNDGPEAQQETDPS

[3] = molecular target: T2, 320 non-olfactory GPCRs (Homo sapiens, UniProt P51582); settings: receptor P2RY4; replicate values, Fig_4g
T2 construct: expressed in transfected cells; host or cells: HTLA cells
T2 sequence (P51582 whole entry): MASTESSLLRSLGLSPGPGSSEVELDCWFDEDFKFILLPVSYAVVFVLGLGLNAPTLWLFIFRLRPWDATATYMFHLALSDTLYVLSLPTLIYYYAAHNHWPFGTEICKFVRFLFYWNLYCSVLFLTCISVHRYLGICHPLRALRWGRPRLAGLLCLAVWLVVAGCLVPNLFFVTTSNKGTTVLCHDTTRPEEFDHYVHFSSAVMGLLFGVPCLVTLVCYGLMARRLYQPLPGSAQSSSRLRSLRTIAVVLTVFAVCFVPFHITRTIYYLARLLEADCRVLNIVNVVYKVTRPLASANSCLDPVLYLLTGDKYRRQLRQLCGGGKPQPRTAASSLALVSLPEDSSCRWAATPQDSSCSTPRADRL

[4] = molecular target: 320 non-olfactory GPCRs (Homo sapiens, UniProt P41146); settings: receptor OPRL1; replicate values, Fig_4g
Chain of 320 non-olfactory GPCRs (Homo sapiens, UniProt P41146) (P41146 whole entry): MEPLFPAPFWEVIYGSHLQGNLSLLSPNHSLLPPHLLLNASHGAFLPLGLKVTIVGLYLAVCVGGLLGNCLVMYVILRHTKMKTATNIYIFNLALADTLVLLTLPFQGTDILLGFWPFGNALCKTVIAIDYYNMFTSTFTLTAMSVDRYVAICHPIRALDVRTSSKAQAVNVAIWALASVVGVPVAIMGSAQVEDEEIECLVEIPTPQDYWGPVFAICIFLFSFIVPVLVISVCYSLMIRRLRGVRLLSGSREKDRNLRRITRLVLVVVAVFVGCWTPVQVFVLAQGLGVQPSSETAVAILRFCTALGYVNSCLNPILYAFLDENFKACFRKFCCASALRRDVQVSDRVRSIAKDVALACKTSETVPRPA
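Throughout, for Fold of Basal: compound tested at 1 µM final concentration.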
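Throughout, for GPCRome agonism screen response: fold over basal response of each receptor without drug.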

Chain of 320 non-olfactory GPCRs (Homo sapiens, UniProt P21462) (P21462 whole entry): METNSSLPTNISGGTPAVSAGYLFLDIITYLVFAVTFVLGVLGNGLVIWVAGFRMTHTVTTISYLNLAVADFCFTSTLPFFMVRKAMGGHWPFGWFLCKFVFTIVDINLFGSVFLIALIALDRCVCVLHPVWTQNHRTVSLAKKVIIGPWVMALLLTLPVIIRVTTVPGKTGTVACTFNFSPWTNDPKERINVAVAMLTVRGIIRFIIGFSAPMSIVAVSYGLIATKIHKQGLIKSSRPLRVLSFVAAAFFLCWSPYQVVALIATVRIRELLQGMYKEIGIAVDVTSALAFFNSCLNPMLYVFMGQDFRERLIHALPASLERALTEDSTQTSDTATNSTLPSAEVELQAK

With CCOc1cccc2cc(C(C)NCC3(O)CCCCC3)oc12 (stereo not shown) [O4LE6] the “Fold of Basal” value [1] was 0.6589 and 0.3791 and 0.4925 and 0.3481, the “GPCRome agonism screen response” value [2] was 1.001 and 1.011 and 0.9191 and 1.865 and the “GPCRome agonism screen response” value [3] was 0.9286 and 1.003 and 1.314 and 2.009. For the same compound, the “GPCRome agonism screen response” value [4] was 0.6174 and 0.5517 and 0.7699 and 0.8115.
